From US20130131321A1, “LIGANDS FOR ANTIBODY AND Fc-FUSION PROTEIN PURIFICATION BY AFFINITY CHROMATOGRAPHY” (GRAFFINITY PHARMACEUTICALS GMBH, priority 2010, published 2013) come the findings set out here.

In one test the test system is full length Bevacizumab. The test can be described thus: SPR screening of chemical microarrays, full length Bevacizumab. The settings on record: chemical microarray, immobilized ligand. The format is binding, humanized. The source says:
(§1) Graffinity has developed high density chemical microarrays comprising thousands of small molecules immobilized onto gold chips. The arrays are constructed using maleimide-thiol coupling chemistry in combination with high density pintool spotting. For the construction, glass plates are microstructured by photolithographical methods in order to define up to 9,216 sensor fields per array. A subsequently applied gold coating provides the basis for the SPR effect and enables the formation of a binary, mixed self assembled monolayer (SAM) of two different thiols. […]
(§2) Surface plasmons are collective oscillations of electrons at a metal surface which can be resonantly excited by polarized light of appropriate wavelength and incidence angle. […] Processes which alter the local refractive index in close proximity to the metal surface (such as antibody binding to the immobilized ligands) can therefore be monitored sensitively. […] While scanning over a range of wavelengths covering the SPR resonance conditions, reflection images are recorded stepwise. […]
(§3) The experimental results of the microarray screening campaigns were analyzed by manual hit selection using in-house developed software routines as well as by an in-depth data analysis by commercially available data mining tools. […]

The test system of another test is Anti RhD IgG. The test can be described thus: SPR screening of chemical microarrays, Anti RhD IgG. It is filed as binding. The conditions noted are these: chemical microarray, immobilized ligand.
Text: as §1, §2, §3

The next test concerns Tocilicumab. The test can be described thus: SPR screening of chemical microarrays, Tocilizumab. The conditions noted are these: chemical microarray, immobilized ligand. The format is binding, humanized.
Text: as §1, §2, §3

Test [1] concerns the target T1, Bevacizumab (Homo sapiens, UniProt P01857).
T1 construct: fused on or other part: humanised anti-VEGF-A VH domain N-terminal of the gamma-1 constant region (engineered, no UniProt entry)
As to the kind of experiment: Microtiter plate chromatography of resins, Bevacizumab whole IgG (bound, yield, selectivity). It is filed as binding, humanized.

In another test the test system is Tocilizumab. The test can be described thus: Microtiter plate chromatography of resins, Tocilizumab (bound, yield). The format is binding, humanized.
A further test has as its system Palivizumab. As to the kind of experiment: Microtiter plate chromatography of resins, Palivizumab (bound, yield). It is filed as binding, humanized.
The subject of test [2] is human poly-IgG (h-poly-IgG). As to the kind of experiment: Microtiter plate chromatography of resins, human poly-IgG (bound, yield). The format is binding.
The next test has as its system rabbit poly-IgGs. The test can be described thus: Microtiter plate chromatography of resins, rabbit poly-IgG. The format is binding. As to the method: (§4) Resins were assessed in packed mode by microtiter plate chromatography. For each column, approximately 30 μl of resin were transferred to a 384-well filter plate and sealed with appropriate top frits.
(§5) Columns were equilibrated with 6.7 column volumes (cv) of phosphate buffered saline (0.15 M NaCl, 20 mM sodium phosphate, pH 7.3; PBS) prior to injection. Either 3.3 cv of whole IgGs dissolved at 0.75 mg ml^−1, Fab or Fc fragments dissolved at 0.25 mg ml^−1 (all three in PBS) or host cell proteins (HCP) were injected onto columns. Antibody fragments of Bevacizumab (Fab and Fc) were prepared by cleavage of whole IgG with papain protease (3) according to the protocol of the manufacturer. […] Volumes transferred were spun through columns at 50 g for 1-2 min. During injection of samples, acceleration was reduced to 10 g and centrifugation time increased to 5-10 min. Effluent fractions were collected in 384-well plates and concentrations of protein analyzed by Bradford assay. Protein masses mi, mft and me (see below) were calculated as the product of fraction volume and measured protein concentration.
(§6) The fraction of ‘bound’ protein was calculated as the difference between the total mass of protein injected mi and the mass of protein detected in the flowthrough mft, divided by the total mass of protein injected.
The ‘yield’ of protein was calculated as the mass of protein eluted me, divided by the mass of protein injected mi.
(§7) the fraction of ‘bound’ protein and the ‘yield’ of protein were calculated for each resin based on data for whole IgG-antibodies. In the case of Bevacizumab fragments and host cell proteins, only the fraction of ‘bound’ protein is given. Selectivity of resins was calculated from data for Bevacizumab Whole IgG and host cell proteins. Due to limited experimental precision, selectivity was truncated beyond values of 10.

The subject of the next test is Bevacizumab Fc fragment. As to the kind of experiment: Microtiter plate chromatography of resins, Bevacizumab Fc fragment (bound). The format is binding, humanized. The procedure:
as §4, §5, §6, §7

Test [3] addresses T1, Bevacizumab. The test can be described thus: Langmuir isotherms by batch adsorption. The format is binding, humanized. The conditions noted are these: Bevacizumab in PBS pH 7.3, 25° C., at least 3 h. The procedure:
Experiments were performed with Bevacizumab as antibody. Parameters of Langmuir isotherms for purified antibody were determined by batch adsorption experiments in 96-well microtiter plates. In each well, 10 μl of sorbent slurry (50% v/v) were mixed with 100 μl of protein solution. Initial concentrations varied from 0.05-5 mg ml^−1 in phosphate-buffered saline (0.15 M NaCl, 20 mM phosphate buffer, pH 7.3; PBS). Reactions were agitated vigorously at 25° C. for at least 3 h. Afterwards, antibody concentration in the supernatents were measured by Bradford assay.
Parameters of Langmuir isotherms, i.e. dissociation constants Kd and maximum capacities qm, were determined from the measured concentrations in supernatants. Parameters were estimated by numerical fitting of the model equation derived by Chase (4).

Regarding `COc1ccc(NC(=O)c2cc(-c3ccco3)n(C)n2)cc1C(=O)NCCCN` [Ligand L1, 5-[5-(2-Furyl)-1-methylpyrazol-3-yl]carboxamido-2-methoxybenzoic acid N-(3-aminopropyl)amide], the “SPR binding to full length Bevacizumab” value in the test on full length Bevacizumab is given as “distinct binding”. Further, the “SPR binding to full length Anti RhD IgG” value with Anti RhD IgG is listed as “clearly bound”. Besides, the “SPR binding to full length Tocilicumab” value in the test on Tocilicumab is recorded as “clearly bound”. Also, the “Bevacizumab IgG Bound (%)” value at Bevacizumab [1] (fraction of whole IgG Bevacizumab bound to resin) was found to be 100%. In addition, on Bevacizumab [1] (mass of whole IgG Bevacizumab eluted / mass injected), the “Bevacizumab IgG Yield (%)” value came out at 91%. Also, in the test on Tocilizumab, the “Tocilizumab Bound (%)” value came to 100% and the “Tocilizumab Yield (%)” value came out at 97%. For the same compound, in the test with Palivizumab, the “Palivizumab Bound (%)” value came to 100% and the “Palivizumab Yield (%)” value is 92%. Also, in test [2], the “h-poly-IgG Bound (%)” value is 100% and the “h-poly-IgG Yield (%)” value came to 90%. Moreover, in the test on rabbit poly-IgGs, the “r-poly-IgG Bound (%)” value worked out at 100% and the “r-poly-IgG Yield (%)” value was 100%. The “binding of rabbit poly-IgGs” value in the test with rabbit poly-IgGs (microtiter plate chromatography, PBS) is “efficient binding”. The “Bevacizumab Fc Bound (%)” value in the test on Bevacizumab Fc fragment (Bevacizumab Fc fragment) amounted to 100%. In addition, the “binding of Bevacizumab Fc-fragment” value in the test on Bevacizumab Fc fragment (Fc 0.25 mg ml^-1 in PBS) is on record as “bound the Fc-fragment”. In addition, on Bevacizumab [3], the “qm (maximum capacity, Langmuir isotherm)” value was 36 mg per ml resin.
